This is an account of results in patent US9187469B2, “Morpholinylbenzotriazines for use in cancer therapy” (Merck Patent GmbH, priority 2011, dated 2015).

For the first data set, the system named is kinases of the PI3K isoenzyme family.
Test: not given
Conditions: cited from earlier work.
For `CCN1CCN(CC(=O)Nc2ccc(-c3cccc4c(=O)cc(N5CCOCC5)oc34)c3sc4ccccc4c23)CC1` [KU-0060648], the “inhibition of kinases of the PI3K isoenzyme family” value is on record as “potently inhibited”.

A further data set deals with HCT116 cells. As to the kind of experiment: Cellular colony growth test with X-ray irradiation (Example 6). Particulars: Homo sapiens, HCT-116; HCT116, at 4.8 Gray. Format: cell-based. The protocol: The colorectal carcinoma cell line HCT116 was cultivated in MEM alpha medium with 10% of foetal calf serum, 1 mM sodium pyruvate and 2 mM glutamine at 37° C. and 10% CO2. The cells were detached from the base of the culture vessels with the aid of trypsine/EDTA, centrifuged off in centrifuge tubes and taken up in fresh medium. The cell density was subsequently determined. 300 cells were sown out in 6-well cell culture plates in 2 ml of culture medium and cultivated overnight. Next day, the cells were treated with test substances for one hour before the cell culture plates were treated with defined doses of X-rays (in general 0, 2.4, 4.8, 12 Gray; irradiation instrument: Faxitron RX-650; Faxitron X-Ray LLC, USA). In order to determine the dose/effect relationships, the cells were treated with various concentrations of a test substance. After irradiation, the cells are cultivated for a further 24 hours in the presence of the test substance, the culture medium was then replaced with culture medium without test substance, and the cells were cultivated for a further 6-8 days. The cell colonies formed were subsequently stained with the aid of Crystal Violet and counted in a colony counter (Gelcount, Oxford Optronics, UK). Dose/effect curves, in particular IC50 values, were determined using a curve adaptation function for nonlinear dose/effect relationships.
In the case of `Cc1cnc([C@@H](O)[C@H]2CCCN(c3nnnc4cc(N5CCOCC5)ccc34)C2)s1` [No. 12, (S)-(5-Methyl-thiazol-2-yl)-[(S)-1-(7-morpholin-4-ylbenzo[d]-1,2,3-triazin-4-yl)-piperidin-3-yl]-methanol], the IC50 was less than 400 nM.

The test system of the next data set is mammal cells.
Test: not given
Conditions: Rosenzweig et al. (1999); cited from earlier work.
In the case of `O=c1cc(N2CCOCC2)oc2c(-c3ccccc3)cccc12` [LY294002], the “increase in sensitivity to ionising irradiation in cellular terms” value is “weak increase”.

A further data set deals with T1, DNA-PK (Homo sapiens (Human), UniProt P78527).
Test: not given
Conditions: Hardcastle et al. (2005); cited from earlier work.
For `O=c1cc(N2CCOCC2)oc2c(-c3cccc4c3sc3ccccc34)cccc12` [NU-7441], the IC50 was 20 nM.

Test system in another data set: not given
Test: not given
Conditions: cited from earlier work.
With `CCN1CCN(CC(=O)Nc2ccc(-c3cccc4c(=O)cc(N5CCOCC5)oc34)c3sc4ccccc4c23)CC1` [KU-0060648], the “solubility profile in aqueous medium” value is given as “improved solubility profile”.

The target in the next data set is T1, DNA-PK. As to the kind of experiment: DNA-PK biochemical assay (FlashPlate kinase assay, Example 4). Conditions: 5 μM ATP; read-out: Bonding DNA-PK IC50. The protocol: The kinase assay was carried out in streptavidin-coated […] microtitre FlashPlates®. To this end, 1.5 μg of the DNA-PK/protein complex and 100 ng of biotinylated substrate, such as, for example, PESQEAFADLWKK biotin-NH2 (“biotin-DNA-PK peptide”), in a total volume of 36.5 μl (34.25 mM HEPES/KOH, 7.85 mM Tris-HCl, 68.5 mM KCl, 5 μM ATP, 6.85 mM MgCl2, 0.5 mM EDTA, 0.14 mM EGTA, 0.69 mM DTT, pH 7.4), were incubated at room temperature for 90 min with 500 ng of DNA from calf thymus, 0.1 μCi of 33P-ATP and 1.8% of DMSO per well with or without the test compound. The reaction was stopped using 50 μl/well of 200 mM EDTA. After incubation for a further 30 min at room temperature, the liquid was removed. Each well was washed three times with 100 μl of 0.9% sodium chloride solution. A non-specific reaction (blank value) was determined using 10 μM of a proprietary kinase inhibitor. The radioactivity measurement was carried out by means of a TopCount. IC50 values were calculated in RS1 (Kashishian et al. (2003) Molecular Cancer Therapeutics 1257) and are compiled in Table 1.
For the compound `COc1ccc([C@@H](O)[C@H]2CCCN(c3nnnc4cc(N5CCOCC5)ccc34)C2)nn1` [compound 14, (S)-(6-Methoxy-pyridazin-3-yl)-[(S)-1-(7-morpholin-4-yl-benzo[d]-1,2,3-triazin-4-yl)-piperidin-3-yl]-methanol], the IC50 was less than 100 nM.
Same read-out and setting: to `Cc1csc([C@@H](O)[C@@H]2CCCN(c3nnnc4cc(N5CCOCC5)ccc34)C2)n1` [compound 6, (S)-(4-Methyl-thiazol-2-yl)-[(R)-1-(7-morpholin-4-ylbenzo[d]-1,2,3-triazin-4-yl)-piperidin-3-yl]-methanol] belongs less than 100 nM.
Same read-out and setting: to `COc1ccc([C@H](O)[C@H]2CCCN(c3nnnc4cc(N5CCOCC5)ccc34)C2)nn1` [compound 15, (R)-(6-Methoxy-pyridazin-3-yl)-[(S)-1-(7-morpholin-4-yl-benzo[d]-1,2,3-triazin-4-yl)-piperidin-3-yl]-methanol] belongs less than 100 nM; to `C[C@](O)(c1nccs1)[C@H]1CCCN(c2nnnc3cc(N4CCOCC4)ccc23)C1` [compound 8, (R)-1-[(S)-1-(7-Morpholin-4-yl-benzo[d]-1,2,3-triazin-4-yl)-piperidin-3-yl]-1-thiazol-2-yl-ethanol], less than 100 nM; to `Cc1cnc([C@H](O)[C@H]2CCCN(c3nnnc4cc(N5CCOCC5)ccc34)C2)s1` [compound 13, (R)-(5-Methyl-thiazol-2-yl)-[(S)-1-(7-morpholin-4-ylbenzo[d]-1,2,3-triazin-4-yl)-piperidin-3-yl]-methanol], less than 100 nM.
On the same count and under the same terms, the result for `O[C@@H](c1nccs1)[C@H]1CCCN(c2nnnc3cc(N4CCOCC4)ccc23)C1` [compound 1, (R)-[(S)-1-(7-Morpholin-4-yl-benzo[d]-1,2,3-triazin-4-yl)-piperidin-3-yl]-thiazol-2-yl-methanol] reads less than 100 nM; that for `Cc1cnc([C@@H](O)[C@H]2CCCN(c3nnnc4cc(N5CCOCC5)ccc34)C2)s1` [No. 12, (S)-(5-Methyl-thiazol-2-yl)-[(S)-1-(7-morpholin-4-ylbenzo[d]-1,2,3-triazin-4-yl)-piperidin-3-yl]-methanol], less than 100 nM; that for `CC(C)(C)n1cc([C@@H](O)[C@H]2CCCN(c3nnnc4cc(N5CCOCC5)ccc34)C2)cn1` [compound 19, (S)-(1-tert-Butyl-1H-pyrazol-4-yl)-[(S)-1-(7-morpholin-4-yl-benzo[d]-1,2,3-triazin-4-yl)-piperidin-3-yl]-methanol], less than 100 nM.
As to `Cc1csc([C@H](O)[C@@H]2CCCN(c3nnnc4cc(N5CCOCC5)ccc34)C2)n1` [compound 7, (R)-(4-Methyl-thiazol-2-yl)-[(R)-1-(7-morpholin-4-ylbenzo[d]-1,2,3-triazin-4-yl)-piperidin-3-yl]-methanol], the IC50 was less than 100 nM.
For the compound `C[C@@](O)(c1nccs1)[C@H]1CCCN(c2nnnc3cc(N4CCOCC4)ccc23)C1` [compound 9, (S)-1-[(S)-1-(7-Morpholin-4-yl-benzo[d]-1,2,3-triazin-4-yl)-piperidin-3-yl]-1-thiazol-2-yl-ethanol], the IC50 was less than 100 nM.
Same read-out and setting: to `O[C@H](c1nccs1)[C@@H]1CCCN(c2nnnc3cc(N4CCOCC4)ccc23)C1` [compound 2, (S)-[(R)-1-(7-Morpholin-4-yl-benzo[d]-1,2,3-triazin-4-yl)-piperidin-3-yl]-thiazol-2-yl-methanol] belongs less than 100 nM; to `COc1ccc([C@@H](O)[C@H]2CCCN(c3nnnc4cc(N5CCOCC5)ccc34)C2)cn1` [compound 16, (S)-(6-Methoxy-pyridin-3-yl)-[(S)-1-(7-morpholin-4-ylbenzo[d]-1,2,3-triazin-4-yl)-piperidin-3-yl]-methanol], less than 100 nM; to `Cc1nc([C@@H](O)[C@H]2CCCN(c3nnnc4cc(N5CCOCC5)ccc34)C2)sc1C` [compound 11, (S)-(4,5-Dimethyl-thiazol-2-yl)-[(S)-1-(7-morpholin-4-ylbenzo[d]-1,2,3-triazin-4-yl)-piperidin-3-yl]-methanol], less than 100 nM.
Same read-out and setting: the result for `Cc1nc([C@H](O)[C@@H]2CCCN(c3nnnc4cc(N5CCOCC5)ccc34)C2)sc1C` [compound 10, (R)-(4,5-Dimethyl-thiazol-2-yl)-[(R)-1-(7-morpholin-4-ylbenzo[d]-1,2,3-triazin-4-yl)-piperidin-3-yl]-methanol] reads less than 100 nM; that for `O[C@@H](c1nccs1)[C@@H]1CCCN(c2nnnc3cc(N4CCOCC4)ccc23)C1` [compound 3, (R)-[(R)-1-(7-Morpholin-4-yl-benzo[d]-1,2,3-triazin-4-yl)-piperidin-3-yl]-thiazol-2-yl-methanol], less than 100 nM; that for `COc1ccc([C@H](O)[C@H]2CCCN(c3nnnc4cc(N5CCOCC5)ccc34)C2)cn1` [compound 17, (R)-(6-Methoxy-pyridin-3-yl)-[(S)-1-(7-morpholin-4-ylbenzo[d]-1,2,3-triazin-4-yl)-piperidin-3-yl]-methanol], less than 100 nM.
With `Cc1csc([C@H](O)[C@H]2CCCN(c3nnnc4cc(N5CCOCC5)ccc34)C2)n1` [compound 5, (R)-(4-Methyl-thiazol-2-yl)-[(S)-1-(7-morpholin-4-ylbenzo[d]-1,2,3-triazin-4-yl)-piperidin-3-yl]-methanol], the IC50 was less than 100 nM.
With `Cc1csc([C@@H](O)[C@H]2CCCN(c3nnnc4cc(N5CCOCC5)ccc34)C2)n1` [compound 4, (S)-(4-Methyl-thiazol-2-yl)-[(S)-1-(7-morpholin-4-ylbenzo[d]-1,2,3-triazin-4-yl)-piperidin-3-yl]-methanol], the IC50 is less than 100 nM.
Same read-out and setting: to `CC(C)n1cc([C@@H](O)[C@H]2CCCN(c3nnnc4cc(N5CCOCC5)ccc34)C2)cn1` [compound 18, (S)-(1-Isopropyl-1H-pyrazol-4-yl)-[(S)-1-(7-morpholin-4-yl-benzo[d]-1,2,3-triazin-4-yl)-piperidin-3-yl]-methanol] belongs less than 100 nM; to `CCn1cc([C@@H](O)[C@H]2CCCN(c3nnnc4cc(N5CCOCC5)ccc34)C2)cn1` [compound 20, (S)-(1-Ethyl-1H-pyrazol-4-yl)-[(S)-1-(7-morpholin-4-ylbenzo[d]-1,2,3-triazin-4-yl)-piperidin-3-yl]-methanol], less than 100 nM.

The same data set, now with this note: 5 μM ATP; read-out: biochemical activity (assay from Example 4).
In the case of `O[C@H](c1nccs1)[C@H]1CCCN(c2nnnc3cc(N4CCOCC4)ccc23)C1` [(S)-[(S)-1-(7-morpholin-4-ylbenzo[d]-1,2,3-triazin-4-yl)piperidin-3-yl]thiazol-2-ylmethanol], the IC50 worked out at 1 nM.

Another data set has as its system DNA-PK phosphorylation at serine 2056 in HCT116 cells. As to the kind of experiment: Cellular DNA-PK phosphorylation at serine 2056 (Example 5). Format: cell-based. Particulars: 10 μM bleomycin, six hours. The protocol: HCT116 cells were cultivated in MEM alpha medium with 10% of foetal calf serum, 1 mM sodium pyruvate and 2 mM glutamine at 37° C. and 10% CO2. The cells were detached from the base of the culture vessels with the aid of trypsine/EDTA, centrifuged off in centrifuge tubes and taken up in fresh medium. The cell density was subsequently determined. 200,000 cells were sown per cavity of a 12-well cell culture plate in 1 ml of culture medium and cultivated overnight. Next day, 10 μM bleomycin and test substances in fresh culture medium was added to the cells and these were cultivated for a further six hours. Cell lysis was subsequently carried out. The cell lysates were investigated by SDS polyacrylamide gel electrophoresis by means of DNA-PK-specific antibodies (Abcam ab13852: total DNA-PK; ab18192: phosphoserine 2056 DNA-PK) and Western Blotting. The enzymatic reaction was developed with the aid of a chemiluminescence reagent. The chemiluminescence was recorded with the aid of a documentation system (VersaDoc™, Bio-Rad, USA) and evaluated densitometrically with the aid of instrument-specific software (Quantity One). The signals with phospho-DNA-PK-specific antibodies were standardised to the signal with the antibody against the total protein DNA-PK. IC50 values and percentage inhibition data were determined by referencing to the signal level of the bleomycin-treated vehicle control group.
In the case of `O[C@H](c1nccs1)[C@H]1CCCN(c2nnnc3cc(N4CCOCC4)ccc23)C1` [(S)-[(S)-1-(7-morpholin-4-ylbenzo[d]-1,2,3-triazin-4-yl)piperidin-3-yl]thiazol-2-ylmethanol], the “cellular activity (assay from Example 5)” value was “sub-micromolar”.
